Laboratory results reported in ChEMBL document CHEMBL5108009, “Positron Emission Tomography (PET) Imaging Tracers for Serotonin Receptors” (J Med Chem, 2022).

Key:
[1] = Drug uptake in human brain; type: ADME, tissue-based
[2] = molecular target: 5-hydroxytryptamine receptor 4 (Homo sapiens, UniProt Q13639); test: Binding affinity to 5-HT4 receptor (unknown origin) assessed as inhibition constant
[3] = molecular target: T1, 5-hydroxytryptamine receptor 7 (Homo sapiens, UniProt P34969)
[4] = molecular target: T2, 5-hydroxytryptamine receptor 2C (Homo sapiens, UniProt P28335)
T2 sequence (P28335 whole entry): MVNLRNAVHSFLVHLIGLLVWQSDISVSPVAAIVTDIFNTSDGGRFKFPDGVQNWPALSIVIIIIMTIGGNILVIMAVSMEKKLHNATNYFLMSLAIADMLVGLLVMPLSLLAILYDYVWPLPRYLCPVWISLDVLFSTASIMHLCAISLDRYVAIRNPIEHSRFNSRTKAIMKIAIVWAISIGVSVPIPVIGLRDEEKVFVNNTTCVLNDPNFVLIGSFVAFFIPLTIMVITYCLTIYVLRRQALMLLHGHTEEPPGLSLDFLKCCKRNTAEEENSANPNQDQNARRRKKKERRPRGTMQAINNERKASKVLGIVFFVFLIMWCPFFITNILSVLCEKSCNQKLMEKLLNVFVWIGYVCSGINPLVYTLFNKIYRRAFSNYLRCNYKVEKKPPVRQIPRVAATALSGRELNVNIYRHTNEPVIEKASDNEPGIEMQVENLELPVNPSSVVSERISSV

[5] = molecular target: T3, 5-hydroxytryptamine receptor 1D (Homo sapiens, UniProt P28221); test: Binding affinity to 5-HT1D (unknown origin) assessed as inhibition constant
[6] = molecular target: T4, 5-hydroxytryptamine receptor 1F (Homo sapiens, UniProt P30939); test: Binding affinity to human 5-HT1F assessed as inhibition constant
[7] = molecular target: T5, 5-hydroxytryptamine receptor 2B (Homo sapiens, UniProt P41595)
[8] = molecular target: T6, 5-hydroxytryptamine receptor 1A (Homo sapiens, UniProt P08908)
T6 sequence (P08908 whole entry): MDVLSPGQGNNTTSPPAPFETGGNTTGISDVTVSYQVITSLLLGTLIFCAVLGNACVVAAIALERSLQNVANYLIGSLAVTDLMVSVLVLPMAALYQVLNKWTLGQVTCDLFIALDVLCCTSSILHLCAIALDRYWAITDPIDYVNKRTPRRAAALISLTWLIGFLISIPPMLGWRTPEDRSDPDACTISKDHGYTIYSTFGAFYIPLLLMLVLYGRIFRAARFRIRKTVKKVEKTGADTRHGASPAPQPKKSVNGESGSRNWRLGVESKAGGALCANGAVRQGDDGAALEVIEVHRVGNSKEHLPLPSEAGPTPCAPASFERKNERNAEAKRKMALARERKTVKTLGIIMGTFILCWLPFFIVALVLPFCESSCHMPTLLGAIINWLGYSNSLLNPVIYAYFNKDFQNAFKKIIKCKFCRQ

[9] = molecular target: 5-hydroxytryptamine receptor 5A (Homo sapiens, UniProt P47898); test: Binding affinity to 5-HT5A receptor (unknown origin) assessed as inhibition constant
[10] = molecular target: T7, 5-hydroxytryptamine receptor 2A (Rattus norvegicus, UniProt P14842); test: Antagonist activity at rat 5-HT2A receptor; type: functional
[11] = Drug uptake in rat brain frontal cortex relative to control; type: ADME, tissue-based; details: in vivo
[12] = molecular target: T8, 5-hydroxytryptamine receptor 2A (Homo sapiens, UniProt P28223); test: Inverse agonist activity at human 5-HT2A receptor incubated for 3 hrs by radioligand binding assay; type: functional
[13] = molecular target: T8, 5-hydroxytryptamine receptor 2A; test: Antagonist activity at human 5-HT2A receptor incubated for 3 hrs by radioligand binding assay; type: functional
[14] = molecular target: 5-hydroxytryptamine receptor 7 (Rattus norvegicus, UniProt P32305); test: Binding affinity to rat brain 5-HT7 receptor assessed as inhibition constant incubated for 60 mins; type: tissue-based
[15] = Ratio of drug uptake in baboon cerebral cortex to cerebellum measured at 60 mins postinjection; type: ADME, organism-based, Papio; details: in vivo, 1 h
[16] = Ratio of drug uptake in human striatum to cerebellum; type: ADME, tissue-based
[17] = Ratio of drug uptake in human frontal cortex to cerebellum; type: ADME, tissue-based, Brain frontal cortex/cerebellum
[18] = Ratio of drug uptake in baboon striatum to cerebellum measured at 60 mins postinjection; type: ADME, organism-based, Papio; details: in vivo, 1 h
[19] = molecular target: T6, 5-hydroxytryptamine receptor 1A; test: Displacement of [3H]-mesulergine from 5-HT1A (unknown origin) assessed as inhibition constant by radioligand competitive binding assay
[20] = molecular target: T5, 5-hydroxytryptamine receptor 2B; test: Displacement of [3H]-mesulergine from 5-HT2B (unknown origin) assessed as inhibition constant by radioligand competitive binding assay
[21] = molecular target: T2, 5-hydroxytryptamine receptor 2C; test: Displacement of [3H]-mesulergine from 5-HT2C (unknown origin) assessed as inhibition constant by radioligand competitive binding assay
[22] = In vivo binding affinity of Papio anubis baboon 5-HT2C assessed as inhibition constant measured after 1 to 21 mins postinjection; type: functional, organism-based
[23] = Drug uptake in cat striatum at 2.5 mCi, iv measured upto 90 mins by PET imaging; type: ADME, organism-based, Felis catus; details: in vivo, 1.5 h
[24] = Drug uptake in Cynomolgus monkey striatum at 4 mCi, iv measured upto 90 mins by PET imaging; type: ADME, organism-based, Macaca fascicularis; details: in vivo, 1.5 h
[25] = molecular target: T7, 5-hydroxytryptamine receptor 2A; test: Binding affinity to rat frontal cortex 5-HT2A assessed as dissociation constant; type: tissue-based
[26] = molecular target: T7, 5-hydroxytryptamine receptor 2A; test: Binding affinity to rat frontal cortex 5-HT2A assessed as inhibition constant; type: tissue-based
[27] = molecular target: Sigma non-opioid intracellular receptor 1 (Homo sapiens, UniProt Q99720); test: Binding affinity to sigma 1 receptor (unknown origin) assessed as inhibition constant
[28] = molecular target: T1, 5-hydroxytryptamine receptor 7; test: Binding affinity to 5-HT7 receptor (unknown origin) assessed as inhibition constant
[29] = molecular target: Sigma intracellular receptor 2 (Homo sapiens, UniProt Q5BJF2); test: Binding affinity to sigma 2 receptor (unknown origin) assessed as inhibition constant
[30] = molecular target: T1, 5-hydroxytryptamine receptor 7; test: Binding affinity to human 5-HT7 receptor transfected by pcDNA3.1(+) vector in HEK293 cells assessed as inhibition constant by Cheng-Prusoff equation analysis; type: cell-based
[31] = Drug uptake in Wistar rat frontal cortex assessed as non-displaceable binding potential at 10 MBq measured at 5 to 60 mins; type: ADME, tissue-based; details: in vivo, time 5-60 min
[32] = Ratio of drug uptake in Wistar rat cortex to cerebellum at 10 MBq measured at 30 mins; type: ADME, tissue-based; details: in vivo, 0.5 h
[33] = molecular target: T4, 5-hydroxytryptamine receptor 1F; test: Binding affinity to human 5-HT1F assessed as inhibition constant incubated for 10 mins by radioligand binding assay
[34] = molecular target: 5-hydroxytryptamine receptor 1B (Homo sapiens, UniProt P28222)
D(2) dopamine receptor = D(2) dopamine receptor (Rattus norvegicus, UniProt P61169); test: Displacement of [3H]-spiperone from rat striatal membrane D2 receptor; type: cell membranes, Striatum
[35] = molecular target: T7, 5-hydroxytryptamine receptor 2A; test: Displacement of [3H]-Ketanserin from rat cortical membrane 5-HT2A receptor; type: cell membranes, Cortex
[36] = molecular target: T9, Alpha-1A adrenergic receptor (Rattus norvegicus, UniProt P43140); test: Displacement of [3H]prazosin from rat whole brain alpha1 adrenergic receptor; type: tissue-based
T9 sequence (P43140 whole entry): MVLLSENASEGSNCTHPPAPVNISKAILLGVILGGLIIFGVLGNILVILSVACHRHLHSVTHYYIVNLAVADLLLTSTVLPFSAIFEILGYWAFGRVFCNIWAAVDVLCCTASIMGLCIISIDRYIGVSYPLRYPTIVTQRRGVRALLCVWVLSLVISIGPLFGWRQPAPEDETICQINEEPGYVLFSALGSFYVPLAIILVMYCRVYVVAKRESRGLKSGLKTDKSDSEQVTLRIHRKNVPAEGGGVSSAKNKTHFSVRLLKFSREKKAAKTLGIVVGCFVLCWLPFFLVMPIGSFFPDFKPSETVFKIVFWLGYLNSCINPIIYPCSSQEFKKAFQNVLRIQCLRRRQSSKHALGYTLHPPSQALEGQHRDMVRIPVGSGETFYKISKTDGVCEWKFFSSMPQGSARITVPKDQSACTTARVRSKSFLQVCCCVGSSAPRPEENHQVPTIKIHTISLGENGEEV

[37] = molecular target: Serotonin 3 (5-HT3) receptor; test: Binding affinity to 5-HT3 receptor (unknown origin) assessed as inhibition constant; type: protein-complex assay, Homo sapiens
[38] = Ratio of drug uptake in rat cortex to cerebellum at steady state; type: ADME, tissue-based; details: in vivo
[39] = Drug uptake in human frontal cortex assessed as non-displaceable binding potential; type: ADME, tissue-based
[40] = Drug uptake in human striatum relative to control; type: ADME, tissue-based
[41] = molecular target: T8, 5-hydroxytryptamine receptor 2A; test: Binding affinity to human recombinant 5-HT2A assessed as inhibition constant
[42] = Drug uptake in pig striatum relative to control; type: ADME, tissue-based, Sus scrofa; details: in vivo
[43] = molecular target: T10, 5-hydroxytryptamine receptor 6 (Homo sapiens, UniProt P50406); test: Binding affinity to human recombinant 5-HT6 receptor assessed as inhibition constant
[44] = Drug uptake in Papio anubis striatum relative to control; type: ADME, tissue-based
[45] = molecular target: T3, 5-hydroxytryptamine receptor 1D; test: Binding affinity to human 5-HT1D expressed in CHO cells assessed as inhibition constant incubated for 1 hr by Cheng-Prusoff equation analysis; type: cell-based
[46] = molecular target: T10, 5-hydroxytryptamine receptor 6; test: Binding affinity to 5-HT6 receptor (unknown origin) assessed as inhibition constant
[47] = molecular target: T2, 5-hydroxytryptamine receptor 2C; test: Binding affinity to human 5-HT2C assessed as inhibition constant
[48] = Drug uptake in pig brain cortex measured at 10 to 20 mins postinjection; type: ADME, organism-based, Sus scrofa; details: in vivo, time 10-20 min
[49] = Drug uptake in pig brain cortex assessed as non-displaceable binding potential; type: ADME, tissue-based, Sus scrofa; details: in vivo
[50] = molecular target: T8, 5-hydroxytryptamine receptor 2A; test: Binding affinity to human 5-HT2A assessed as inhibition constant
[51] = molecular target: T5, 5-hydroxytryptamine receptor 2B; test: Binding affinity to 5-HT2B (unknown origin) assessed as inhibition constant by liquid scintillation counter analysis
[52] = molecular target: T7, 5-hydroxytryptamine receptor 2A; test: Binding affinity to rat 5-HT2A assessed as inhibition constant by liquid scintillation counter analysis
[53] = molecular target: T2, 5-hydroxytryptamine receptor 2C; test: Binding affinity to 5-HT2C (unknown origin) assessed as inhibition constant by liquid scintillation counter analysis

T5 sequence (P41595 whole entry): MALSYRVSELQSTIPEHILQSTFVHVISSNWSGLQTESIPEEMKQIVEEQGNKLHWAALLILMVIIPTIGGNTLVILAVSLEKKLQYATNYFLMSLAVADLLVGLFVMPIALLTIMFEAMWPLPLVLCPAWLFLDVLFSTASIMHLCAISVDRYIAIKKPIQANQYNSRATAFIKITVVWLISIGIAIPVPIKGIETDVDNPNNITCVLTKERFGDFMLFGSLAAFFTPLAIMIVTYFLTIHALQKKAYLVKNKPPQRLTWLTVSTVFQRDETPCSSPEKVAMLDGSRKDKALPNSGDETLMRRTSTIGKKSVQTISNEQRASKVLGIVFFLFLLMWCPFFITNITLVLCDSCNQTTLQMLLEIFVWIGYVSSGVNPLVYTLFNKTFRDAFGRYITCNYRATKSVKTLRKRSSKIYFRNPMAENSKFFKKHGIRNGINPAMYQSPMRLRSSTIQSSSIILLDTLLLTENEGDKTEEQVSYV
T1 sequence (P34969 whole entry): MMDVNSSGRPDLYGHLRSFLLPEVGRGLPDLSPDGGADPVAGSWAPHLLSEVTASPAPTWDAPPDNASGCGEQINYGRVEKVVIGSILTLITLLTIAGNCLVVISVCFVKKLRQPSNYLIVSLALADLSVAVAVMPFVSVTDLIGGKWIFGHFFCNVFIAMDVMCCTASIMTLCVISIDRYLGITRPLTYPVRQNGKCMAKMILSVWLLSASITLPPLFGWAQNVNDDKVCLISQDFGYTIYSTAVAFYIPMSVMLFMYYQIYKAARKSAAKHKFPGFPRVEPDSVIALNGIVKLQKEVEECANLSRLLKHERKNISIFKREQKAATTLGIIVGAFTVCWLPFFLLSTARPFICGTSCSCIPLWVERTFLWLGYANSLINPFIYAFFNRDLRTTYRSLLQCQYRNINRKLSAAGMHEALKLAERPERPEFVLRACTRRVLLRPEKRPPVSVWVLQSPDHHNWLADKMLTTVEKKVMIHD
T7 sequence (P14842 whole entry): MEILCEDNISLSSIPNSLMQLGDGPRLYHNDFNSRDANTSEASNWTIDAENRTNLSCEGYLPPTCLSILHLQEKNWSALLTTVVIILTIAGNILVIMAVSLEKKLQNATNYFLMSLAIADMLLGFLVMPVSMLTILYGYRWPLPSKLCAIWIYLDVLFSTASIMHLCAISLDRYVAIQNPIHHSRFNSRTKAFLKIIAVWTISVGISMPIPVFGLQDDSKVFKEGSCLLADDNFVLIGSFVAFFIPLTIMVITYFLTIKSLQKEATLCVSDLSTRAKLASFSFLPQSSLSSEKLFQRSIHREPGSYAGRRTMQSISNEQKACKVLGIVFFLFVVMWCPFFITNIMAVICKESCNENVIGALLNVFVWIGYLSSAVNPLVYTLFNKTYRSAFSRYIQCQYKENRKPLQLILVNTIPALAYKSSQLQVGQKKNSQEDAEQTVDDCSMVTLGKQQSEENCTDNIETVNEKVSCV
T8 sequence (P28223 whole entry): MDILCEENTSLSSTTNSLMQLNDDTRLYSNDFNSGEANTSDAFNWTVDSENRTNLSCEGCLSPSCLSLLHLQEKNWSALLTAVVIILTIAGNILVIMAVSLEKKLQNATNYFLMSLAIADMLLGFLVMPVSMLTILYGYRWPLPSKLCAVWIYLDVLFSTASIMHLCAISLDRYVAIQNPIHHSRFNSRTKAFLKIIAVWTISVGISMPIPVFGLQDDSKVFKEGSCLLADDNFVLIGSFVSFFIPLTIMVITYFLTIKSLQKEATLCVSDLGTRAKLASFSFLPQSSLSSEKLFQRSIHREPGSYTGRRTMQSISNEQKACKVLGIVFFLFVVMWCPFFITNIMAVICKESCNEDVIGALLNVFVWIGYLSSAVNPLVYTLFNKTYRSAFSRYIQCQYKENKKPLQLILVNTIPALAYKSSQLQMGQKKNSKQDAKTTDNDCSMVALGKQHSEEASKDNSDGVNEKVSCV
T3 sequence (P28221 whole entry): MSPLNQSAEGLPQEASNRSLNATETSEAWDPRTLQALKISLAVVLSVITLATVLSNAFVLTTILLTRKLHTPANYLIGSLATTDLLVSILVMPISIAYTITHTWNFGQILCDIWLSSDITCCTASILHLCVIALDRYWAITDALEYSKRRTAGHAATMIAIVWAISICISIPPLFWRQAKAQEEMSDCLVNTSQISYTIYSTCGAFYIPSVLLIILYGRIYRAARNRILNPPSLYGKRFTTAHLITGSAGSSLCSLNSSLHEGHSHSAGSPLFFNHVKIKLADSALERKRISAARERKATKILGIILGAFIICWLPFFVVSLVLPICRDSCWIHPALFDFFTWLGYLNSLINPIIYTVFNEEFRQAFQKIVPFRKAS
T10 sequence (P50406 whole entry): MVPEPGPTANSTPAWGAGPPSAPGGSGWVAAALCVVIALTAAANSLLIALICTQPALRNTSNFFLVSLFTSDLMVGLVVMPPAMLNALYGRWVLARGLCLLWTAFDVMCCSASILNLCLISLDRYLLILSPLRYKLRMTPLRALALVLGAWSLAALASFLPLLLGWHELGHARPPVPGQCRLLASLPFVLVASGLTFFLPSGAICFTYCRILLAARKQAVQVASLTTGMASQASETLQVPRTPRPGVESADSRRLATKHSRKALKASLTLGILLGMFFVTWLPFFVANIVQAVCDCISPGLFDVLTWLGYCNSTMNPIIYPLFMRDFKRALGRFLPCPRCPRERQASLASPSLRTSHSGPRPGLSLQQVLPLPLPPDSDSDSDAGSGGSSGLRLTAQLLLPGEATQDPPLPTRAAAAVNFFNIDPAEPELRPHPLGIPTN
Sequence of 5-hydroxytryptamine receptor 5A (P47898 whole entry): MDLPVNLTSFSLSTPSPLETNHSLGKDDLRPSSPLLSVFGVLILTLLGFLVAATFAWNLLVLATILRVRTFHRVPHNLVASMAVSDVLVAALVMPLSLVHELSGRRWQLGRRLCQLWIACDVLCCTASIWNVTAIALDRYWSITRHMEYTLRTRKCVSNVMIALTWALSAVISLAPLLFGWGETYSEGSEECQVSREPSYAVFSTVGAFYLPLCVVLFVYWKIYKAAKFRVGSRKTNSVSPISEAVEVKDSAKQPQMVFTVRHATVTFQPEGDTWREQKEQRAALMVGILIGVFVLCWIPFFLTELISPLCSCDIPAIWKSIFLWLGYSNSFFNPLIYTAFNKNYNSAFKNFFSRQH
T4 sequence (P30939 whole entry): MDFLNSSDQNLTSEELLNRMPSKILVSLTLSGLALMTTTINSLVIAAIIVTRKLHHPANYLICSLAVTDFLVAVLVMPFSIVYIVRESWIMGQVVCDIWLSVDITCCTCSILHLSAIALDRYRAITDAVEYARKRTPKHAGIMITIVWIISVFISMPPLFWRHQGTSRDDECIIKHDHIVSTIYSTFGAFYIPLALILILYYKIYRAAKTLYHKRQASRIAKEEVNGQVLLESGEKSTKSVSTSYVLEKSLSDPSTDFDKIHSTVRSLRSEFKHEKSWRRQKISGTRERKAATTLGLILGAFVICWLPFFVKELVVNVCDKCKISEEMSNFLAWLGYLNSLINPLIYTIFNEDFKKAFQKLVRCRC
Sequence of Sigma non-opioid intracellular receptor 1 (Q99720 whole entry): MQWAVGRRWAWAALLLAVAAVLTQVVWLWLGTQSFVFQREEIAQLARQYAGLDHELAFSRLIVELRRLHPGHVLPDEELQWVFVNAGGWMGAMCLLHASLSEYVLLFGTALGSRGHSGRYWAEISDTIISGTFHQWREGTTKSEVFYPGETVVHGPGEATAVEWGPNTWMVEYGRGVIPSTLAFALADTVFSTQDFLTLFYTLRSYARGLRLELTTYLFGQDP
Sequence of Sigma intracellular receptor 2 (Q5BJF2 whole entry): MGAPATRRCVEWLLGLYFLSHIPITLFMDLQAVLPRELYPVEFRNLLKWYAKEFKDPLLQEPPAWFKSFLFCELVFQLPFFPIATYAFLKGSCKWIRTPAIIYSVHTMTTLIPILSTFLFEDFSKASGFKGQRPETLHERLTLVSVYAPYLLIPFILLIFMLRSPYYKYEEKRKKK
Sequence of 5-hydroxytryptamine receptor 1B (P28222 whole entry): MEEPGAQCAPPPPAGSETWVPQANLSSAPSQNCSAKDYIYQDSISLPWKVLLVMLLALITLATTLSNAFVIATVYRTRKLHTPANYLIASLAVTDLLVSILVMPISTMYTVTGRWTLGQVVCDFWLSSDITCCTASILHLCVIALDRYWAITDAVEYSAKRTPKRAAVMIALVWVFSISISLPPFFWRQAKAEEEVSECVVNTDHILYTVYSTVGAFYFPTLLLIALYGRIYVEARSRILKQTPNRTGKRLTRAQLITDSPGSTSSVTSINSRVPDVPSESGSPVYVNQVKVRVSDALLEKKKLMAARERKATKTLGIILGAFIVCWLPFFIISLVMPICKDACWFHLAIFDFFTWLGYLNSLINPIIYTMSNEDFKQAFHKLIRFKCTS
Sequence of D(2) dopamine receptor (P61169 whole entry): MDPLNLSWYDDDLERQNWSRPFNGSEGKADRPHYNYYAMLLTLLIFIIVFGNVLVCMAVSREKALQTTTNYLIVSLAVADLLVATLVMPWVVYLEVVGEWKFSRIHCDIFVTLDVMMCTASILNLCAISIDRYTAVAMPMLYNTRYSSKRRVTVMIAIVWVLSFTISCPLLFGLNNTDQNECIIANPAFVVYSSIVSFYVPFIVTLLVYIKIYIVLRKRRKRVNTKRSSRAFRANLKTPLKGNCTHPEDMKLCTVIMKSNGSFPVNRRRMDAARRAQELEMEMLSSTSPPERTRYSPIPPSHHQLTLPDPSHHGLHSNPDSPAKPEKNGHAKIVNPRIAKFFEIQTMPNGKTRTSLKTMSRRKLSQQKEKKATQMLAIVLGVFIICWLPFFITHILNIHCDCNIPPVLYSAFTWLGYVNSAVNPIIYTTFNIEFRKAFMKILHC

[11CH3]N1CCC(COC(=O)c2cc(Cl)c(N)c3c2OCCO3)CC1
SUVmax [1]: 28 kBq/cm3
Ki [2]: 0.3 nM

CN(C)[C@@H]1CCc2[nH]c3ccc(NC(=O)c4ccc(F)cc4)cc3c2C1
Ki [3]: > 500 nM
Ki [4]: > 500 nM
Ki [5]: > 500 nM
Ki [6]: 6 nM
Ki [7]: > 500 nM
Ki [8]: > 500 nM
Ki [9]: > 500 nM

COc1cccc(CCc2ccccc2OCC[C@@H]2C[C@@H](O)CN2C)c1
Ki [10]: 0.79 nM

COc1cccc([C@H](O)C2CCN(CCc3ccc([18F])cc3)CC2)c1OC
Drug uptake [11]: > 94%

COc1ccc(C(=O)N(Cc2ccc(C)cc2)C2CCN(C)CC2)cc1
Ki [12]: 2.1 nM
Ki [13]: 2.5 nM

CC1CCN(CC[C@H]2CCCN2S(=O)(=O)c2cccc(OCC[18F])c2)CC1
Ki [14]: 0.75 nM

Cc1nc2n(c(=O)c1CCN1CCC(C(=O)c3ccc([18F])cc3)CC1)CCS2
Ratio [15]: 3
Ratio [16]: 2.38
Ratio [17]: 2.53
Ratio [18]: 3.5

[11CH3]N1CCc2nc3ccnn3c(N3CCC3)c2CC1
Ki [19]: > 1000 nM
Ki [20]: > 1000 nM
Ki [21]: 75 nM
Ki [22]: 161 nM

CC(c1cnc2c(N3CCN(C)CC3)cccc2c1)S(=O)(=O)c1ccccc1[18F] (stereo unspecified)
SUVmax [23]: 4.5
SUVmax [24]: 2.5

CC1(NC(=O)c2ccc(N)cc2)CCN(CCCOc2ccc(F)cc2)CC1
Kd [25]: 0.11 nM
Ki [26]: 0.2 nM

COc1cccc(S(=O)(=O)N2CCC[C@@H]2CCN2CCC(C)CC2)c1
Ki [27]: 9.2 nM
Ki [28]: 18 nM
Ki [29]: 1.6 nM

COc1ccc(-c2c([N+](=O)[O-])ccn2C)cc1
Ki [30]: 16.8 nM

COc1c(OCC[18F])cccc1[C@H](O)C1CCN(CCc2ccc(F)cc2)CC1
Drug uptake [31]: 1.45
Ratio [32]: 2.7

CN1CCC(C(=O)c2cccc(NC(=O)c3c(F)cc(F)cc3F)n2)CC1
Ki [3]: > 590 nM
Ki [4]: > 594 nM
Ki [5]: > 592 nM
Ki [33]: 2.21 nM
Ki [7]: > 593 nM
Ki [8]: > 590 nM
Ki [34]: > 591 nM
Ki [9]: > 595 nM

Cc1ccc2c(c1)c(-c1ccc(F)cc1)c(C)n2C1CCN(C)CC1
Ki (D(2) dopamine receptor): 2600 nM
Ki [35]: 5.3 nM
Ki [36]: 2700 nM

c1ccc(CN2CCN(c3nc4ccsc4n4cccc34)CC2)cc1
Ki [37]: 1 nM

COc1c(OCC[18F])cccc1C(O)C1CCN(CCc2ccc(F)cc2)CC1 (racemic)
Ratio [38]: 3.2
Drug uptake [39]: 1.5

[11CH3]N1CCN(c2cccc3cc(S(=O)(=O)c4cccc(F)c4)cnc23)CC1
Drug uptake [40]: 11.5 %Idose/L
Ki [41]: 0.16 nM
Drug uptake [42]: 3.5 %Idose/L
Ki [43]: 0.79 nM
Drug uptake [44]: 10.5 %Idose/L

CNC(=O)c1ccc2c(c1)CCO[C@H]2CCN1CCN(c2ccc(C(N)=O)cc2)CC1
Ki [45]: 6 nM
Ki [7]: > 18000 nM

CN(C)CCOc1cccc2c1ccn2S(=O)(=O)c1ccc([18F])cc1
Ki [46]: 4 nM

COc1cc(CCNCc2ccccc2O[11CH3])c(OC)cc1Br
Ki [47]: 1.7 nM
SUV [48]: 0.8
Drug uptake [49]: 0.62
Ki [50]: 0.5 nM

COc1cc(CCNCc2ccccc2OC)c(OC)cc1I
Ki [51]: 2.3 nM
Ki [52]: 2.2 nM
Ki [53]: 7 nM
